Tests used:
YES1 kinase = YES1 kinase (Homo sapiens, UniProt P07947); test: YES1 kinase inhibition, ADP Glo assay (Promega); assay type: biochemical; settings: for IC50: class symbols, read-out: YES1 enzyme, IC50; for inhibition at 0.001 µM / YES1 kinase inhibition at 1 nM (in words): compound 1 nM; for inhibition at 0.001 µM: read-out: YES1 enzyme, % inhibition, 1 nM; for inhibition at 0.01 µM: compound 10 nM, read-out: YES1 enzyme, % inhibition, 10 nM
How it was run: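 YES1 kinase was preincubated 10 min with compound in Mn2+/DTT-containing kinase buffer, then reacted 40 min at room temperature with ATP/substrate; ADP was detected by ADP-Glo luminescence. Activity, background-subtracted and normalised to negative control, is given as % inhibition at 1, 10 and 100 nM, plus IC50.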

[1] = tested on: KYSE-70 esophageal cancer cell line; test: Cell growth inhibition of KYSE-70 (Sulforhodamine B); assay type: cell-based; settings: Homo sapiens; KYSE-70, 72 hours; read-out: KYSE70 GI50
How it was run: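 KYSE-70 cells (YES1-amplified) in RPMI-1640 with 10% FBS were seeded 24 h before treatment with compound at 0.0046–10 µM final. After 72 h, cells were TCA-fixed and stained with sulforhodamine B, with absorbance read at 510 nm. GI50 was derived with a time-zero plate set to 0% and the vehicle control to 100%, in duplicate tests.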

Sequence of YES1 kinase (P07947 whole entry): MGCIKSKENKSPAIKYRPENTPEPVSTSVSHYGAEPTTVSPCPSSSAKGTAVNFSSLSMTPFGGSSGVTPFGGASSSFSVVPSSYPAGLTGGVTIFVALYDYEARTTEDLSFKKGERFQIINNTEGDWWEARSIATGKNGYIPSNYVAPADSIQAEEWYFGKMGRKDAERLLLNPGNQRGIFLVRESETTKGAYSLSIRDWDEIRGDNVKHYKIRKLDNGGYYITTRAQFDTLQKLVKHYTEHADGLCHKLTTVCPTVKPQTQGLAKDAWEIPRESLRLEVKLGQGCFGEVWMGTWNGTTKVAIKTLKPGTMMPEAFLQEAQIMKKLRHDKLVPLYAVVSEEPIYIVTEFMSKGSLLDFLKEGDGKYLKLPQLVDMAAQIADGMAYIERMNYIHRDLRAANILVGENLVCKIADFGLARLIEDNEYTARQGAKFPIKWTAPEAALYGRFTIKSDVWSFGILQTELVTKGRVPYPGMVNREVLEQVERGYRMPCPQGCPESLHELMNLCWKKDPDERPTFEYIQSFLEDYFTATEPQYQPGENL

CNC1(C)CCN(c2cc(-c3ccc(NC(=O)OC(C)(C)C)c(OC)c3)c3c(N)ncnn23)CC1 [Example 105, tert-butyl (4-(4-amino-7-(4-methyl-4-(methylamino)piperidin-1-yl)pyrrolo[2,1-f][1,2,4]triazin-5-yl)-2-methoxyphenyl)carbamate]
IC50 (YES1 kinase): ≤ 100 nM
GI50 [1]: ≤ 100 nM

COc1cc(-c2cc(N3CCC(C(C)(C)N)CC3)n3ncnc(N)c23)ccc1NC(=O)OC(C)(C)C [Example 106, tert-butyl (4-(4-amino-7-(4-(2-aminopropan-2-yl)piperidin-1-yl)pyrrolo[2,1-f][1,2,4]triazin-5-yl)-2-methoxyphenyl)carbamate]
inhibition at 0.001 µM (YES1 kinase): 37%
inhibition at 0.01 µM (YES1 kinase): 43%
GI50 [1]: ≤ 100 nM

COc1cc(-c2cc(N3CCC(CCN)CC3)n3ncnc(N)c23)ccc1NC(=O)OC(C)(C)C [Example 107, tert-butyl (4-(4-amino-7-(4-(2-aminoethyl)piperidin-1-yl)pyrrolo[2,1-f][1,2,4]triazin-5-yl)-2-methoxyphenyl)carbamate]
IC50 (YES1 kinase): ≤ 100 nM
inhibition at 0.001 µM (YES1 kinase): 38%
inhibition at 0.01 µM (YES1 kinase): 52%
GI50 [1]: 100 to 1000 nM

CNCCC1CCN(c2cc(-c3ccc(NC(=O)OC(C)(C)C)c(OC)c3)c3c(N)ncnn23)CC1 [Example 108, tert-butyl (4-(4-amino-7-(4-(2-(methylamino)ethyl)piperidin-1-yl)pyrrolo[2,1-f][1,2,4]triazin-5-yl)-2-methoxyphenyl)carbamate]
IC50 (YES1 kinase): ≤ 100 nM
inhibition at 0.001 µM (YES1 kinase): 38%
inhibition at 0.01 µM (YES1 kinase): 52%
GI50 [1]: ≤ 100 nM

COc1cc(-c2cc(N3CCC(CCN(C)C)CC3)n3ncnc(N)c23)ccc1NC(=O)OC(C)(C)C [Example 109, tert-butyl (4-(4-amino-7-(4-(2-(dimethylamino)ethyl)piperidin-1-yl)pyrrolo[2,1-f][1,2,4]triazin-5-yl)-2-methoxyphenyl)carbamate]
IC50 (YES1 kinase): ≤ 100 nM
inhibition at 0.001 µM (YES1 kinase): 37%
inhibition at 0.01 µM (YES1 kinase): 51%
GI50 [1]: ≤ 100 nM

COc1cc(-c2cc(N[C@H]3CC[C@H](N(C)C)C3)n3ncnc(N)c23)ccc1NC(=O)OC(C)(C)C [Example 112, tert-butyl (4-(4-amino-7-(((1S,3S)-3-(dimethylamino)cyclopentyl)amino)pyrrolo[2,1-f][1,2,4]triazin-5-yl)-2-methoxyphenyl)carbamate]
YES1 kinase inhibition at 1 nM (in words) (YES1 kinase): could be inhibited even at a low concentration of 1 nM
inhibition at 0.001 µM (YES1 kinase): 29%
inhibition at 0.01 µM (YES1 kinase): 60%
GI50 [1]: 100 to 1000 nM

COc1cc(-c2cc(N[C@H]3CC[C@H](N)C3)n3ncnc(N)c23)ccc1NC(=O)OC(C)(C)C [Example 116, tert-butyl (4-(4-amino-7-(((1S,3S)-3-aminocyclopentyl)amino)pyrrolo[2,1-f][1,2,4]triazin-5-yl)-2-methoxyphenyl)carbamate]
YES1 kinase inhibition at 1 nM (in words) (YES1 kinase): could be inhibited even at a low concentration of 1 nM
inhibition at 0.001 µM (YES1 kinase): 30%
inhibition at 0.01 µM (YES1 kinase): 63%
GI50 [1]: 100 to 1000 nM

COc1cc(-c2cc(NCC3CCNCC3)n3ncnc(N)c23)ccc1NC(=O)OC(C)(C)C [Example 117, tert-butyl (4-(4-amino-7-((piperidin-4-ylmethyl)amino)pyrrolo[2,1-f][1,2,4]triazin-5-yl)-2-methoxyphenyl)carbamate]
inhibition at 0.01 µM (YES1 kinase): 39%
inhibition at 0.1 µM (YES1 kinase; compound 100 nM, read-out: YES1 enzyme, % inhibition, 100 nM): 64%
GI50 [1]: 100 to 1000 nM

COc1cc(-c2cc(N[C@H]3C[C@H](N)C3)n3ncnc(N)c23)ccc1NC(=O)OC(C)(C)C [Example 119, tert-butyl (4-(4-amino-7-(((1r,3r)-3-aminocyclobutyl)amino)pyrrolo[2,1-f][1,2,4]triazin-5-yl)-2-methoxyphenyl)carbamate]
YES1 kinase inhibition at 1 nM (in words) (YES1 kinase): could be inhibited even at a low concentration of 1 nM
inhibition at 0.001 µM (YES1 kinase): 24%
inhibition at 0.01 µM (YES1 kinase): 55%
GI50 [1]: 100 to 1000 nM

— patent publication US20260297095A1, “NOVEL PYRROLOTRIAZINE DERIVATIVE AND USE THEREOF” (Pelemed Co., Ltd., priority 2024, published 2026)
